Assay [1] has as its target T1, recombinant human arginase 1 (hARG1) (Homo sapiens, UniProt P05089).
T1 construct: made in house; host or cells: E. coli
T1 sequence (P05089 1-322): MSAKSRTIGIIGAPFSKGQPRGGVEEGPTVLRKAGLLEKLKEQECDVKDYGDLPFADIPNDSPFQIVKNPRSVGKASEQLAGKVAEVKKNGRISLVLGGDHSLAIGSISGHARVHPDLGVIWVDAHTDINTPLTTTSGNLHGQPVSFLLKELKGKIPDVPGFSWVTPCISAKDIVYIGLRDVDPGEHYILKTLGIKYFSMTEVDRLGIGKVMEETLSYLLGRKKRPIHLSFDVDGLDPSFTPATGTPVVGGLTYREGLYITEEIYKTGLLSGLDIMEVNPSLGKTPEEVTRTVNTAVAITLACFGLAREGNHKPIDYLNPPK
The assay is described as follows: Human arginase inhibition assay (colorimetric urea detection), arginase 1. The assay is classed as biochemical. As to conditions: IC50 class; hydrochloride salts; 1 h at 37° C., pH 7.4, 10 mM L-arginine, 200 μM MnCl2; read-out: Activity Class (ARG I). On the procedure:
(§1) Human Arginase Inhibition Assay
(§2) The inhibitory activities of the compounds of the invention were assessed using recombinant human arginases 1 and 2. Both enzymes were biosynthesized using a prokaryotic expression system (E. coli) and purified by fast protein liquid chromatography (FPLC). The compounds were screened in 96-well plates at the total reaction volume of 100 μL. Briefly, recombinant enzymes were incubated with the tested compounds for 1 h at 37° C. in the reaction buffer (100 mM sodium phosphate buffer, 130 mM NaCl, 1 mg/mL BSA, pH 7.4) containing substrate (L-arginine hydrochloride, 10 mM for hARG1 and 20 mM for hARG2) and cofactor (200 μM MnCl2). The assay is based on the detection of urea, which is generated during the conversion of L-arginine into L-omithine catalyzed by ARG1 or ARG2 (Baggio et al. J Pharmacol. Exp. Ther. 1999, 290, 1409-1416). The colorimetrically detectable product was developed by adding a mixture of reagent A (4 mM oPA, 50 mM boric acid, 1 M sulfuric acid, 0.03% Brij-35) and reagent B (4 mM NED, 50 mM boric acid, 1 M sulfuric acid, 0.03% Brij-35) in equal proportions. The absorbance for each well was measured at 515 nm and the enzyme inhibition was calculated. The urea production in the absence of any tested compound was considered as maximal enzyme activity. The absorbance at the absence of arginase (background) was subtracted from all the values. The normalized values were analyzed using GraphPad Prism 7.0 software by plotting inhibition curves and determining the IC50 values.
(§3) The inhibitory activity classes of the hydrochloride salts of the exemplary compounds according to the invention are presented in Table 1

Assay [2] addresses T2, recombinant human arginase 2 (hARG2) (Homo sapiens, UniProt P78540).
T2 construct: made in house; host or cells: E. coli
T2 sequence (P78540 23-354): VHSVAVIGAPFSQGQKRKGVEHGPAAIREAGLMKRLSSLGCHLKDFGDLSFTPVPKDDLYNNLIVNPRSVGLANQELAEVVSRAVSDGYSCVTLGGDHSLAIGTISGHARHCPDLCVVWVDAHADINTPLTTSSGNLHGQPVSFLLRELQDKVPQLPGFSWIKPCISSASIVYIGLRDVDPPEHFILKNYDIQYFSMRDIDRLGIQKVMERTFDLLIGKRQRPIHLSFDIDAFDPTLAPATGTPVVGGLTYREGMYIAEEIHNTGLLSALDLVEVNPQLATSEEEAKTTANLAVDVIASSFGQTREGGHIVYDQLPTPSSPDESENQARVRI
Nature of the assay: Human arginase inhibition assay (colorimetric urea detection), arginase 2. The assay is classed as biochemical. As to conditions: IC50 class; hydrochloride salts; 1 h at 37° C., pH 7.4, 20 mM L-arginine, 200 μM MnCl2; read-out: Activity Class (ARG II). On the procedure:
as §1, §2, §3

Counter-ions that a name gives are not always drawn. Some results are limits rather than exact numbers.

As for `CCN[C@]1(C(=O)O)C[C@H](CCB(O)O)CC[C@H]1CNC(=O)[C@H](C)N` [Example 35, (1R,2S,5R)-2-(((S)-2-Aminopropanamido)methyl)-5-(2-boronoethyl)-1-(ethylamino)cyclohexane-1-carboxylic acid dihydrochloride], the IC50 in assay [1] and in assay [2] was over 300 nM in each case.
In the case of `COC(=O)[C@@]1(N)C[C@H](CCB(O)O)CC[C@H]1CNC(=O)[C@@H](N)C(C)C` [Example 32, (2-((1R,3R,4S)-3-Amino-4-(((S)-2-amino-3-methylbutanamido)methyl)-3-(methoxycarbonyl)cyclohexyl)ethyl)boronic acid dihydrochloride], the IC50 in assay [1] and in assay [2] was over 300 nM each time.
In the case of `N[C@@H](CCC(=O)O)C(=O)NC[C@@H]1CC[C@@H](CCB(O)O)C[C@]1(N)C(=O)O` [Example 30, (1R,2S,5R)-1-Amino-2-(((S)-2-amino-4-carboxybutanamido)methyl)-5-(2-boronoethyl)cyclohexane-1-carboxylic acid dihydrochloride], the IC50 in assay [1] and in assay [2] was over 300 nM in each case.
Consider `C[C@H](N)C(=O)NC[C@@H]1CC[C@@H](CCB(O)O)C[C@]1(N)C(=O)O` [Example 1, (1R,2S,5R)-1-Amino-2-(((S)-2-aminopropanamido)methyl)-5-(2-boronoethyl)cyclohexane-1-carboxylic acid dihydrochloride], for which the figures for the IC50 in assay [1] and in assay [2] were 100 to 199 nM and over 300 nM, respectively.
For `CC(C)[C@H](N)C(=O)NC[C@@H]1CC[C@@H](CCB2OC(=O)CC(CC(=O)O)(C(=O)O)O2)C[C@]1(N)C(=O)O` (stereo partly drawn) [Example 33, 2-(2-((1R,3R,4S)-3-Amino-4-(((S)-2-amino-3-methylbutanamido)methyl)-3-carboxycyclohexyl)ethyl)-4-(carboxymethyl)-6-oxo-1,3,2-dioxaborinane-4-carboxylic acid dihydrochloride], in that order: 100 to 199 nM and over 300 nM.
The like results for `NC(=O)C[C@H](N)C(=O)NC[C@@H]1CC[C@@H](CCB(O)O)C[C@]1(N)C(=O)O` [Example 15, (1R,2S,5R)-1-Amino-5-(2-boronoethyl)-2-(((S)-2,4-diamino-4-oxobutanamido)methyl)cyclohexane-1-carboxylic acid dihydrochloride] were, in that order, 200 to 299 nM and over 300 nM.
For `N[C@@H](CC(=O)O)C(=O)NC[C@@H]1CC[C@@H](CCB(O)O)C[C@]1(N)C(=O)O` [Example 29, (1R,2S,5R)-1-Amino-2-(((S)-2-amino-3-carboxypropanamido)methyl)-5-(2-boronoethyl)cyclohexane-1-carboxylic acid dihydrochloride], in that order: over 300 nM and over 300 nM.
Turning to `N[C@@H](CO)C(=O)NC[C@@H]1CC[C@@H](CCB(O)O)C[C@]1(N)C(=O)O` [Example 7, (1R,2S,5R)-1-Amino-2-(((S)-2-amino-3-hydroxypropanamido)methyl)-5-(2-boronoethyl)cyclohexane-1-carboxylic acid dihydrochloride], the IC50 in assay [1] is 100 to 199 nM; in assay [2] it was over 300 nM.
For `Cn1cc(C[C@@H](N)C(=O)NC[C@@H]2CC[C@@H](CCB(O)O)C[C@]2(N)C(=O)O)c2ccccc21` [Example 26, (1R,2S,5R)-1-Amino-2-(((R)-2-amino-3-(1-methyl-1H-indol-3-yl)propanamido)methyl)-5-(2-boronoethyl)cyclohexane-1-carboxylic acid dihydrochloride], in that order: 100 to 199 nM and over 300 nM.
`C[C@H](N)C(=O)N(C)C[C@@H]1CC[C@@H](CCB(O)O)C[C@]1(N)C(=O)O` [Example 24, (1R,2S,5R)-1-Amino-2-(((S)-2-amino-N-methylpropanamido)methyl)-5-(2-boronoethyl)cyclohexane-1-carboxylic acid dihydrochloride]: the figures for the IC50 in assay [1] and in assay [2] were 100 to 199 nM and over 300 nM, respectively.
For `NC(=O)CC[C@H](N)C(=O)NC[C@@H]1CC[C@@H](CCB(O)O)C[C@]1(N)C(=O)O` [Example 28, (1R,2S,5R)-1-Amino-5-(2-boronoethyl)-2-(((S)-2,5-diamino-5-oxopentanamido)methyl)cyclohexane-1-carboxylic acid dihydrochloride], in that order: 100 to 199 nM and over 300 nM.
For `CNCC(=O)NC[C@@H]1CC[C@@H](CCB(O)O)C[C@]1(N)C(=O)O` [Example 31, (1R,2S,5R)-1-Amino-5-(2-boronoethyl)-2-((2-(methylamino)acetamido)methyl)cyclohexane-1-carboxylic acid dihydrochloride], in that order: 100 to 199 nM and over 300 nM.
On to `N[C@@H](Cc1c[nH]c2ccccc12)C(=O)NC[C@@H]1CC[C@@H](CCB(O)O)C[C@]1(N)C(=O)O` [Example 18, (1R,2S,5R)-1-Amino-2-(((S)-2-amino-3-(1H-indol-3-yl)propanamido)methyl)-5-(2-boronoethyl)cyclohexane-1-carboxylic acid dihydrochloride], for which the IC50 in assay [1] was 100 to 199 nM; in assay [2] it was over 300 nM.
For `N[C@@H](Cc1ccc(O)cc1)C(=O)NC[C@@H]1CC[C@@H](CCB(O)O)C[C@]1(N)C(=O)O` [Example 14, (1R,2S,5R)-1-Amino-2-(((S)-2-amino-3-(4-hydroxyphenyl)propanamido)methyl)-5-(2-boronoethyl)cyclohexane-1-carboxylic acid dihydrochloride], in that order: 200 to 299 nM and over 300 nM.
In the case of `CC(C)[C@@](C)(N)C(=O)NC[C@@H]1CC[C@@H](CCB(O)O)C[C@]1(N)C(=O)O` [Example 21, (1R,2S,5R)-1-Amino-2-((2-amino-2,3-dimethylbutanamido)methyl)-5-(2-boronoethyl)cyclohexane-1-carboxylic acid dihydrochloride], the IC50 in assay [1] is 200 to 299 nM; in assay [2] it was over 300 nM.
For `C[C@@H](N)C(=O)NC[C@@H]1CC[C@@H](CCB(O)O)C[C@]1(N)C(=O)O` [Example 22, (1R,2S,5R)-1-Amino-2-(((R)-2-aminopropanamido)methyl)-5-(2-boronoethyl)cyclohexane-1-carboxylic acid dihydrochloride], in that order: 1 to 99 nM and over 300 nM.
For `CN[C@]1(C(=O)O)C[C@H](CCB(O)O)CC[C@H]1CNC(=O)[C@H](C)N` [Example 36, (1R,2S,5R)-2-(((S)-2-Aminopropanamido)methyl)-5-(2-boronoethyl)-1-(methylamino)cyclohexane-1-carboxylic acid dihydrochloride], in that order: over 300 nM and over 300 nM.
Consider `CC(C)[C@@H](N)C(=O)NC[C@@H]1CC[C@@H](CCB(O)O)C[C@]1(N)C(=O)O` [Example 23, (1R,2S,5R)-1-Amino-2-(((R)-2-amino-3-methylbutanamido)methyl)-5-(2-boronoethyl)cyclohexane-1-carboxylic acid dihydrochloride], for which the IC50 in assay [1] is 1 to 99 nM; in assay [2], over 300 nM.
For `N[C@@H](CS)C(=O)NC[C@@H]1CC[C@@H](CCB(O)O)C[C@]1(N)C(=O)O` [Example 27, (1R,2S,5R)-1-Amino-2-(((R)-2-amino-3-mercaptopropanamido)methyl)-5-(2-boronoethyl)cyclohexane-1-carboxylic acid dihydrochloride], in that order: 200 to 299 nM and over 300 nM.
Take `CCC[C@H](N)C(=O)NC[C@@H]1CC[C@@H](CCB(O)O)C[C@]1(N)C(=O)O` [Example 20, (1R,2S,5R)-1-Amino-2-(((S)-2-aminopentanamido)methyl)-5-(2-boronoethyl)cyclohexane-1-carboxylic acid dihydrochloride]: the IC50 was 1 to 99 nM in assay [1] and over 300 nM in assay [2].

These data come from patent publication US12612420B2, “Arginase inhibitors and methods of use thereof” (Molecure S.A., priority 2020, dated 2026).
